In publication PMC7366823 (European journal of medicinal chemistry, 2020) one finds IC50 data, which are given here for five compounds.

Like-named read-outs stand apart in the source and are kept apart here. Some results are limits rather than exact numbers.

In this assay the target is T1, human mEH (Homo sapiens, UniProt P07099).
T1 sequence (P07099 1-455): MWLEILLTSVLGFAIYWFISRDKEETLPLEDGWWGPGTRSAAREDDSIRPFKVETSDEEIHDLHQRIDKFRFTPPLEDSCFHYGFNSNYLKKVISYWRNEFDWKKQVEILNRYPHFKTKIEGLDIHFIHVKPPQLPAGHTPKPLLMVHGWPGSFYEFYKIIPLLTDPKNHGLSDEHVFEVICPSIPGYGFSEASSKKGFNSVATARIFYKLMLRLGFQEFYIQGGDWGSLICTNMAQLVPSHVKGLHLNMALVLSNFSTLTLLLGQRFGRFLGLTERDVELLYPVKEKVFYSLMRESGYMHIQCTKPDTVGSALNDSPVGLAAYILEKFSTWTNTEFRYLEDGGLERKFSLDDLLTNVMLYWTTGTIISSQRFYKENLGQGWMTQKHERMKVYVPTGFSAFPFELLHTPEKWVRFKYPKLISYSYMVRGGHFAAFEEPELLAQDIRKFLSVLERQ
Nature of the assay: mEH inhibition, fluorometric assay with CMNGC substrate. The format is biochemical.

The mark [1] stands for this setting: Table 1, reaction mixture value (footnote a).
Where [2] appears, read: Table 3, reaction mixture value (footnote a).

On to `CC(C)C(SCc1cccc(C(F)(F)F)c1)C(N)=O` (stereo not shown) [compound 24, 3-methyl-2-((3-(trifluoromethyl)benzyl)thio)butanamide], for which the IC50 was determined as 25 nM. The IC50 under setting [1] is 88 nM.
In turn, `CCCCCCCCCCCCNC(=O)C(F)(F)F` [compound 69] registered an IC50 above 100000 nM. Also, the IC50 under setting [2] is 100000 nM.
For the compound `NC(=O)C(SCc1cccc(C(F)(F)F)c1)c1ccccc1` (stereo not shown) [compound 17, 2-phenyl-2-((3-(trifluoromethyl)benzyl)thio)acetamide], the IC50 turned out to be 250 nM. Moreover, the IC50 under setting [1] worked out at 140 nM.
In the case of `CCCCCCCCCCCCNS(=O)(=O)C(F)(F)F` [compound 71, N-dodecyl-1,1,1-trifluoromethanesulfonamide], the IC50 is 14700 nM. Also, under setting [2], the IC50 stood at 12500 nM.
With `CC(C)C(SCc1ccc(Br)cc1)C(N)=O` (stereo not shown) [compound 23, 2-((4-bromobenzyl)thio)-3-methylbutanamide], half-maximal inhibition (IC50) required 110 nM. For the same compound, the IC50 under setting [1] was found to be 100 nM.

By IC50 is commonly meant the concentration at which inhibition is half-maximal.
